Measured values reported in ChEMBL document CHEMBL1201862, “PubChem BioAssay data set” (2004).
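1) Cells in 96-well plates. 2) Compound, 48 h, 5 concentrations. 3) Linear interpolation between surrounding doses. 4) Unreached endpoint = highest concentration. Abbreviation: GI50, concentration required for 50% inhibition of growth.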 Activity calls are given as the source filed them. No stated cut-off is given here; in the data, active = GI50 up to about 1.1 µM and inactive = higher.

What was measured:
Assay in all cases: NCI anticancer screen, dose series, 48 h
[1] = test system: A549
[2] = test system: SK-MEL-2
[3] = test system: EKVX
[4] = test system: HCC 2998
[5] = test system: HCT-116
[6] = test system: UACC-62
[7] = test system: HOP-92
[8] = test system: T47D
[9] = test system: TK-10
[10] = test system: NCI-H460
[11] = test system: Hs-578T
[12] = test system: OVCAR-3
[13] = test system: OVCAR-8
[14] = test system: HCT-15
[15] = test system: MOLT-4
[16] = test system: PC-3
[17] = test system: UACC-257
[18] = test system: CCRF-CEM
[19] = test system: SW-620

Row | Compound | GI50 [1] | GI50 [2] | GI50 [3] | GI50 [4] | GI50 [5] | GI50 [6] | GI50 [7] | GI50 [8] | GI50 [9] | GI50 [10] | GI50 [11] | GI50 [12] | GI50 [13] | GI50 [14] | GI50 [15] | GI50 [16] | GI50 [17] | GI50 [18] | GI50 [19]
1 | CCOC(=O)C(C(=O)OCC)=C1NC2(c3ccccc3Nc3ccc(C)cc32)C(C(=O)OC)S1 (stereo unspecified) | 13.7 µM (inactive) | 14.7 µM (inactive) | 8.36 µM (inactive) | 15.9 µM (inactive) | 9.64 µM (inactive) | 20.8 µM (inactive) | 4.92 µM (inactive) | 3.96 µM (inactive) | 46.9 µM (inactive) | 12.1 µM (inactive) | 10.3 µM (inactive) | 23.1 µM (inactive) | 29.4 µM (inactive) | 18.7 µM | 5.58 µM (inactive) | 6.85 µM (inactive) | 26.4 µM (inactive) | 15.1 µM (inactive) | 48.6 µM (inactive)
2 | COCn1c(C)c(C)c2c(=O)oc(N(C)C)nc21 | > 100 µM (inactive) | > 100 µM (inactive) | > 100 µM (inactive) | > 100 µM (inactive) | > 100 µM (inactive) | > 100 µM (inactive) | > 100 µM (inactive) | > 100 µM (inactive) | > 100 µM (inactive) | > 100 µM (inactive) | > 100 µM (inactive) | – | > 100 µM (inactive) | > 100 µM | > 100 µM (inactive) | > 100 µM (inactive) | > 100 µM (inactive) | > 100 µM (inactive) | > 100 µM (inactive)
3 | O=C(Cn1c(C(=O)/C=C/c2ccc(Cl)cc2)nc2ccccc21)c1ccc(Cl)cc1 | 21 µM (inactive) | 17.6 µM (inactive) | 26.5 µM (inactive) | 14.4 µM (inactive) | 10.9 µM (inactive) | 15.8 µM (inactive) | 34.3 µM (inactive) | 28.6 µM (inactive) | 30.8 µM (inactive) | 10.9 µM (inactive) | 10.9 µM (inactive) | 8.87 µM (inactive) | – | 15.3 µM | 2.26 µM (inactive) | 22.5 µM (inactive) | 24.1 µM (inactive) | 2.7 µM (inactive) | 11.4 µM (inactive)
4 | COc1cc([C@@H]2c3cc(O)c(OC)cc3C=C(C(N)=O)[C@H]2C(N)=O)ccc1O | > 100 µM (inactive) | – | > 100 µM (inactive) | > 100 µM (inactive) | > 100 µM (inactive) | – | > 100 µM (inactive) | > 100 µM (inactive) | – | > 100 µM (inactive) | > 100 µM (inactive) | > 100 µM (inactive) | > 100 µM (inactive) | > 100 µM | > 100 µM (inactive) | > 100 µM (inactive) | > 100 µM (inactive) | > 100 µM (inactive) | > 100 µM (inactive)
5 | COC(=O)CC[N+]1=CCC(c2ccccc2)(c2ccccc2)O1 | > 100 µM (inactive) | > 100 µM (inactive) | > 100 µM (inactive) | > 100 µM (inactive) | > 100 µM (inactive) | > 100 µM (inactive) | > 100 µM (inactive) | > 100 µM (inactive) | > 100 µM (inactive) | > 100 µM (inactive) | > 100 µM (inactive) | > 100 µM (inactive) | > 100 µM (inactive) | > 100 µM | > 100 µM (inactive) | > 100 µM (inactive) | > 100 µM (inactive) | – | > 100 µM (inactive)
6 | c1cnc2c(c1)Nc1cnncc1S2 | > 100 µM (inactive) | > 100 µM (inactive) | > 100 µM (inactive) | > 100 µM (inactive) | > 100 µM (inactive) | 77.6 µM (inactive) | 86.3 µM (inactive) | > 100 µM (inactive) | > 100 µM (inactive) | > 100 µM (inactive) | > 100 µM (inactive) | > 100 µM (inactive) | > 100 µM (inactive) | > 100 µM | > 100 µM (inactive) | > 100 µM (inactive) | > 100 µM (inactive) | > 100 µM (inactive) | > 100 µM (inactive)
7 | COC(OC)C1OC(CO)C(n2cc(C)c(=O)[nH]c2=O)C1O (stereo unspecified) | > 100 µM (inactive) | > 100 µM (inactive) | > 100 µM (inactive) | > 100 µM (inactive) | > 100 µM (inactive) | > 100 µM (inactive) | > 100 µM (inactive) | > 100 µM (inactive) | > 100 µM (inactive) | > 100 µM (inactive) | > 100 µM (inactive) | > 100 µM (inactive) | > 100 µM (inactive) | > 100 µM | > 100 µM (inactive) | > 100 µM (inactive) | > 100 µM (inactive) | > 100 µM (inactive) | > 100 µM (inactive)
8 | CC1=NN(c2ccc(S(=O)(=O)O)cc2)C2(C1)SCC(=O)N2c1nc2ccccc2s1 (stereo unspecified) | > 100 µM (inactive) | > 100 µM (inactive) | > 100 µM (inactive) | > 100 µM (inactive) | > 100 µM (inactive) | > 100 µM (inactive) | > 100 µM (inactive) | > 100 µM (inactive) | > 100 µM (inactive) | > 100 µM (inactive) | > 100 µM (inactive) | > 100 µM (inactive) | > 100 µM (inactive) | > 100 µM | 46.9 µM (inactive) | > 100 µM (inactive) | > 100 µM (inactive) | – | > 100 µM (inactive)
9 | C(=N\Nc1nnc2c(n1)[nH]c1ccccc12)/c1cccnc1 | > 100 µM (inactive) | > 100 µM (inactive) | > 100 µM (inactive) | > 100 µM (inactive) | > 100 µM (inactive) | > 100 µM (inactive) | > 100 µM (inactive) | > 100 µM (inactive) | > 100 µM (inactive) | > 100 µM (inactive) | > 100 µM (inactive) | > 100 µM (inactive) | > 100 µM (inactive) | > 100 µM | > 100 µM (inactive) | > 100 µM (inactive) | > 100 µM (inactive) | – | > 100 µM (inactive)
10 | COP(=O)(/C=C/c1cc(C(=O)OCc2ccccc2)n(S(=O)(=O)c2ccccc2)c1)OC | > 100 µM (inactive) | > 100 µM (inactive) | > 100 µM (inactive) | > 100 µM (inactive) | > 100 µM (inactive) | > 100 µM (inactive) | – | > 100 µM (inactive) | > 100 µM (inactive) | > 100 µM (inactive) | > 100 µM (inactive) | > 100 µM (inactive) | > 100 µM (inactive) | > 100 µM | > 100 µM (inactive) | > 100 µM (inactive) | > 100 µM (inactive) | > 100 µM (inactive) | > 100 µM (inactive)
11 | CC12c3c4cccc3Oc3cc(N)cc(c31)Oc1cc(N)cc(c12)O4 | 3.77 µM (inactive) | 9.86 µM (inactive) | 3.38 µM (inactive) | 4.61 µM (inactive) | 3.14 µM (inactive) | 4.59 µM (inactive) | 21.4 µM (inactive) | 9.98 µM (inactive) | 10 µM (inactive) | 3.48 µM (inactive) | 6.18 µM (inactive) | 2.41 µM (inactive) | 0.524 µM (active) | 4.14 µM | 5.13 µM (inactive) | 3.58 µM (inactive) | 5.71 µM (inactive) | 0.736 µM (active) | 3.48 µM (inactive)
12 | Cc1ccc(OCC2OC(n3cnc4nc(Nc5ccc(Cl)c(Cl)c5)nc(Cl)c43)CC2Oc2ccc(C)cc2)cc1 (stereo unspecified) | > 100 µM (inactive) | > 100 µM (inactive) | 53.7 µM (inactive) | > 100 µM (inactive) | > 100 µM (inactive) | > 100 µM (inactive) | – | > 100 µM (inactive) | > 100 µM (inactive) | 27.2 µM (inactive) | > 100 µM (inactive) | > 100 µM (inactive) | > 100 µM (inactive) | > 100 µM | > 100 µM (inactive) | > 100 µM (inactive) | > 100 µM (inactive) | > 100 µM (inactive) | > 100 µM (inactive)
13 | CC(=O)O/C=C\OC1CCCC1 | > 100 µM (inactive) | > 100 µM (inactive) | > 100 µM (inactive) | > 100 µM (inactive) | – | > 100 µM (inactive) | > 100 µM (inactive) | > 100 µM (inactive) | > 100 µM (inactive) | > 100 µM (inactive) | > 100 µM (inactive) | > 100 µM (inactive) | > 100 µM (inactive) | > 100 µM | > 100 µM (inactive) | > 100 µM (inactive) | > 100 µM (inactive) | 21.9 µM (inactive) | > 100 µM (inactive)
14 | CC1=NN(c2nc(N)nc(C(C)Sc3cc(Cl)c(C)cc3S(N)(=O)=O)n2)C(C)(C)C1 (stereo unspecified) | > 10 µM (inactive) | > 10 µM (inactive) | > 10 µM (inactive) | > 10 µM (inactive) | > 10 µM (inactive) | – | > 10 µM (inactive) | > 10 µM (inactive) | > 10 µM (inactive) | > 10 µM (inactive) | > 10 µM (inactive) | > 10 µM (inactive) | > 10 µM (inactive) | > 10 µM | > 10 µM (inactive) | > 10 µM (inactive) | > 10 µM (inactive) | > 10 µM (inactive) | > 10 µM (inactive)
15 | C/C(=C\CNc1ncnc2c1ncn2CCC(=O)OC(C)(C)C)CO | > 100 µM (inactive) | – | > 100 µM (inactive) | > 100 µM (inactive) | > 100 µM (inactive) | > 100 µM (inactive) | > 100 µM (inactive) | > 100 µM (inactive) | > 100 µM (inactive) | > 100 µM (inactive) | > 100 µM (inactive) | > 100 µM (inactive) | > 100 µM (inactive) | – | > 100 µM (inactive) | > 100 µM (inactive) | > 100 µM (inactive) | > 100 µM (inactive) | > 100 µM (inactive)
